Like-named read-outs stand apart in the source and are kept apart here.
Columns and labels:
[1] = target: T1, Gastrin receptor (gastric glands) (Cavia porcellus, UniProt H0VZC5); experiment: Gastrin Receptor Binding in Guinea Pig Gastric Glands; set-up: species or system guinea pig (male Hartley)
T1 construct: The washed guinea pig gastric glands prepared as above were resuspended; from tissue; host or cells: guinea pig gastric mucosal glands (male Hartley)
T1 sequence (H0VZC5 1-426): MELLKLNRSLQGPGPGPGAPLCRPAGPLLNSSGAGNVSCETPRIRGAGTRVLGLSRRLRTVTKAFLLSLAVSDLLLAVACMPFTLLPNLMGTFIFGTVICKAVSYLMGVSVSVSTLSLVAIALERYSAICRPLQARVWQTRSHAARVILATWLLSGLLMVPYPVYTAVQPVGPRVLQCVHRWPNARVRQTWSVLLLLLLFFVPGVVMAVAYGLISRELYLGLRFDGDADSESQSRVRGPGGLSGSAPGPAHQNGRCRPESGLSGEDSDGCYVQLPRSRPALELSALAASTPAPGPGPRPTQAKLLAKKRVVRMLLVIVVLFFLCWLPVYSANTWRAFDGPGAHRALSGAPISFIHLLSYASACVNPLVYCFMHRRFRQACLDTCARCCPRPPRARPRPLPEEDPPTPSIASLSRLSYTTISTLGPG

[2] = target: T2, CCK receptor (brain, cerebral cortex) (Cavia porcellus, UniProt H0VZC5); experiment: biochemical; type: binding, Male Hartley guinea pigs
T2 construct: Cerebral cortex was dissected and used as a receptor source; from tissue; host or cells: guinea pig cerebral cortex membranes (male Hartley)
T2 sequence (H0VZC5 1-426): T1 sequence (H0VZC5 1-426)
Procedure: 2. CCK Recepto Binding (Brain)
CCK-33 was radiolabeled and the binding was Performed according to the description for the Pancreas method with modifications according to Saito et al., J. Neurochem.
Cerebral cortex was dissected and used as a receptor source. Each gram of fresh guinea pig brain tissue was homogenized in 10 ml of Tris/Trizma buffer with a Brinkman polytron PT-10. The homogenates were centrifuged at 42,000 g for 15 minutes. Pellets were resuspended in Tris Buffer, centrifuged as above and resuspended in 200 volumes of binding assay buffer (10 mM N-2-hydroxyethyl-piperazine-N'-2-ethane sulfonic acid (HEPES), 5 mM MgCl2, 0.25 mg/ml bacitracin, 1 mM ethylene glycol-bis-(β-aminoethylether-N,N'-tetraacetic acid) (EGTA), and 0.4% bovine serum albumin (BSA)). […] All assays were run in duplicate or triplicate. The reaction mixtures were incubated at 25° C. for 2 hours and centrifuged in a Beckman Microfuge (4 minutes) immediately after adding 1 ml of ice-cold incubation buffer. The supernatant was aspirated and discarded, pellets were counted with a Beckman gamma 5000.

[3] = ^125 I-gastrin, 25° C., 30 minutes, read-out: IC50 ^125 I-Gastrin Gastric Glands
[4] = IC50 ^125 I-Gastrin Gastric Glands, 25° C., 30 minutes
[5] = IC50 ^125 I-CCK Brain, guinea pig cerebral cortex, ^125 I-CCK-33, 25° C., 2 hours
[6] = read-out: IC50 ^125 I-Gastrin Gastric Glands, 25° C., 30 minutes
[7] = read-out: IC50 ^125 I-CCK Brain; guinea pig cerebral cortex, ^125 I-CCK-33, 25° C., 2 hours

Structure (SMILES) | IC50 [1, 4] [µM] | IC50 [2, 5] [µM] | further results
O=C(C=Cc1ccccc1)NC1N=C(c2ccccc2F)c2ccccc2NC1=O (racemic) [Example 121, 3-(RS)-Cinnamoylamino-1,3-dihydro-5-(2-fluorophenyl)-2H-1,4-benzodiazepin-2-one] |  |  | IC50 [1, 3]: 3.8 µM; IC50 ([2]; guinea pig cerebral cortex, ^125 I-CCK-33, 25° C., 2 hours; read-out: IC50 ^125 I-CCK Brain): 5.5 µM
CN(C)c1ccc(C(=O)NC2N=C(c3ccccc3F)c3ccccc3NC2=O)cc1 (racemic) [Example 152, 1,3-Dihydro-3(RS)-(p-dimethylaminobenzoylamino)-5-(2-fluorophenyl)-2H-1,4-benzodiazepin-2-one] | > 100 | > 100 | 
O=C1Nc2ccccc2C(c2ccccc2)=NC1NCCc1c[nH]c2ccccc12 (racemic) [Example 74, 1,3-Dihydro-3(RS)-[2-(3-indolyl)ethyl]amino-5-phenyl-2H-1,4-benzodiazepin-2-one] | > 100 | 100 | 
O=C(NC1N=C(c2ccccc2F)c2ccccc2NC1=O)c1ccc([N+](=O)[O-])cc1 (racemic) [Example 106, 1,3-Dihydro-3-(RS)-(4-nitrophenlcarbonyl)amino-5-(2-fluorophenyl)-2H-1,4-benzodiazepin-2-one] | > 10 | > 50 | 
O=C(NC1N=C(c2ccccc2)c2ccccc2NC1=O)c1cc(Cl)cc(Cl)c1 (racemic) [Example 147, 3-(RS)-(3,5-Dichlorobenzoylamino)1,3-dihydro-5-phenyl-2H-1,4-benzodiazepin-2-one] | 180 | > 100 | 
O=C(NC1N=C(c2ccccc2F)c2ccccc2NC1=O)c1cc2ccccc2o1 (racemic) [Example 128, 1,3-Dihydro-5-(2-fluorophenyl)-3-(RS)-(2-benzofurancarbonylamino)-2H-1,4-benzodiazepin-2-one] |  |  | IC50 [1, 6]: 11 µM; IC50 [2, 7]: 32 µM
O=C(NC1N=C(c2ccccc2)c2ccccc2NC1=O)c1ccccc1Cl (racemic) [Example 137, 3-(RS)-(o-Chlorobenzoylamino)-1,3-dihydro-5-phenyl-2H-1,4-benzodiazepin-2-one] | 52 | > 40 | 
O=C(NC1N=C(c2ccccc2F)c2ccccc2NC1=O)c1cc2cc(O)ccc2[nH]1 (racemic) [Example 122, 1,3-Dihydro-3-(RS)-(5-hydroxy-2-indolylcarbonyl)amino-5-(2-fluorophenyl)-2H-1,4-benzodiazepin-2-one] | 29 | 16 | 
O=C(CCCc1c[nH]c2ccccc12)NC1N=C(c2ccccc2)c2ccccc2NC1=O (racemic) [Example 97, 3(RS)-[4-(3-Indole)butyrylamino]-1,3-dihydro-5-phenyl-2H-1,4-benzodiazepin-2-one] | 200 | > 100 | 
O=C(NC1N=C(c2ccccc2)c2ccccc2NC1=O)c1ccc(Cl)c(Cl)c1 (racemic) [Example 141, 3-(RS)-(3,4-Dichlorobenzoylamino)-1,3-dihydro-5-phenyl-2H-1,4-benzodiazepin-2-one] | 25 | > 40 | 
O=C(NC1N=C(c2ccccc2)c2ccccc2NC1=O)c1ccc(Cl)cc1 (racemic) [Example 130, 1,3-Dihydro-3-(RS)-(4-chlorophenylcarbonyl)amino-5-phenyl-2H-1,4-benzodiazepin-2-one] | 8.2 | > 40 | 
O=C(NC1N=C(c2ccccc2F)c2ccccc2NC1=O)c1cc2cc(Cl)ccc2[nH]1 (racemic) [Example 118, 1,3-Dihydro-3-(RS)-(5-Chloroindole-2-carbonylamino)-5-(2-fluorophenyl)-2H-1,4-benzodiazepin-2-one] | > 10 | 38 | 
CC(C)C[C@@H](NC(=O)OC(C)(C)C)C(=O)N1CC(C[C@H]2N=C(c3ccccc3F)c3ccccc3NC2=O)c2ccccc21 (stereo partly drawn) [Example 22, 1,3-Dihydro-5-(2-fluorophenyl)-3(R)-[3'-β-(1'-t-Boc-D-leucyl)-indolenyl]methyl-2H-1,4-benzodiazepin-2-one] |  | > 100 | 
O=C(NC1N=C(c2ccccc2F)c2ccccc2NC1=O)c1cc2cc(Br)ccc2[nH]1 (racemic) [Example 120, 1,3-Dihydro-3-(RS)-(5-Bromoindole-2-carbonylamino)-5-(2-fluorophenyl)-2H-1,4-benzodiazepin-2-one] | > 10 | 50 | 
CN1C(=O)[C@H](NC(=O)c2ccccc2Br)N=C(c2ccccc2F)c2ccccc21 [Example 171, 3(R)-(+)-3-(2-Bromobenzoylamino)-1,3-dihydro-5-(2-fluorophenyl)-1-methyl-2H-1,4-benzodiazepin-2-one] |  | 5.6 | IC50 [1, 3]: 5.8 µM
CCCc1ccc(C(=O)NC2N=C(c3ccccc3)c3ccccc3NC2=O)cc1 (racemic) [Example 163, 1,3-Dihydro-5-phenyl-3(RS)-(4-α-propylbenzoylamino)-2H-1,4-benzodiazepin-2-one] | 80 | 12 | 
O=C(NCC1N=C(c2ccccc2F)c2ccccc2NC1=O)c1ccsc1 (racemic) [Example 67, 1,3-Dihydro-5-(2'-fluorophenyl)-3(RS)-(3-thiophene-carbonyl)aminomethyl-2H-1,4-benzodiazepin-2-one] | 47 | 100 | 
O=C(NCC1CNc2ccccc2C(c2ccccc2F)=N1)c1cc2ccccc2[nH]1 (racemic) [Example 100, 1,3-Dihydro-3(RS)-(2'-indolecarbonyl)aminomethyl-5-(2-fluorophenyl)-2H-1,4-benzodiazepine] |  |  | IC50 [1, 6]: 22 µM; IC50 [2, 7]: 34 µM
CN1C(=O)C(NC(=O)c2ccccc2Cl)N=C(c2ccccc2)c2ccccc21 (racemic) [Example 139, 3-(RS)-(o-Chlorobenzoylamino)-1,3-dihydro-1-methyl-5-phenyl-2H-1,4-benzodiazepin-2-one] |  | > 100 | IC50 [1, 3]: 30 µM
O=C(NC1N=C(c2ccccc2F)c2ccccc2NC1=O)c1ccsc1 (racemic) [Example 108, 1,3-Dihydro-5-(2-fluorophenyl)-3-(RS)-(3-thiophenecarbonylamino)-2H-1,4-benzodiazepin-2-one] | > 10 | > 50 | 
O=C(NC1N=C(c2ccccc2)c2ccccc2NC1=O)c1ccc(-c2ccccc2)cc1 (racemic) [Example 164, 1,3-Dihydro-5-phenyl-3(RS)-(4-phenylbenzoylamino)-2H-1,4-benzodiazepin-2-one] | > 100 | 18 | 
CN1C(=O)C(NC(=O)c2cc3ccccc3[nH]2)N=C(c2ccccc2F)c2ccccc21 (racemic) [Example 81a, 1,3-Dihydro-5-(2-fluorophenyl)-3(RS)-(2-indolecarbonyl-amino)-1-methyl-2H-1,4-benzodiazepin-2-one] |  | 0.3 | IC50 [1, 3]: 0.19 µM
O=C(Nc1ccc(Cl)cc1)NC1N=C(c2ccccc2F)c2ccccc2NC1=O (racemic) [Example 182, 1,3-Dihydro-3(RS)-(4-chlorophenyl)aminocarbonylamino-5-(2-fluorophenyl)-2H-1,4-benzodiazepin-2-one] | 0.26 | 0.3 | 
CC(C)(C)OC(=O)N[C@@H](Cc1ccccc1)C(=O)NC1N=C(c2ccccc2)c2ccccc2NC1=O (mixture of isomers) [Example 82, 3(RS)-(2(S)-tert-Butoxycarbonylamino-3-phenylpropanoyl-amino)-1,3-dihydro-5-phenyl-2H-1,4-benzodiazepin-2-one] |  | 12 | IC50 [1, 3]: > 100 µM
COc1ccc2[nH]c(C(=O)NC3N=C(c4ccccc4F)c4ccccc4NC3=O)cc2c1 (racemic) [Example 126, 1,3-Dihydro-3-(RS)-(5-methoxyindole-2-carbonylamino)-5-(2-fluorophenyl)-2H-1,4-benzodiazepin-2-one] | > 10 | 29 | 
CN1C(=O)[C@H](N)N=C(c2ccccc2)c2ccccc21 [Example 85b, 3(R)-(+)-3-amino-1,3-dihydro-1-methyl-5-phenyl-2H-1,4-benzodiazepin-2-one] | > 100 | > 100 | 
CC(C)C[C@H](NC(=O)OC(C)(C)C)C(=O)N1CC(C[C@H]2N=C(c3ccccc3F)c3ccccc3NC2=O)c2ccccc21 (stereo partly drawn) [Example 23, 1,3-Dihydro-5-(2-fluorophenyl)-3(R)-[3'-α-(1'-t-Boc-L-leucyl)-indolenyl]methyl-2H-1,4-benzodiazepin-2-one] |  | > 100 | 

Source: patent US4820834A, “Benzodiazepine analogs” (priority 1987, dated 1989)
